The values below are quoted from earlier work in patent US20060246530A1, “Method and reagent for the specifically identifying and quantifying one or more proteins in a sample” (priority 2002, published 2006).

The conditions of data set [1]: stability constant, Gd.
The test system of the next data set is mice. The note with it: Intravenous LD50-rate in mice.
The conditions of data set [2]: stability constant, Cu.
The conditions of data set [3]: stability constant.
For data set [4] the following is noted: stability constant, Zn.
For data set [5] the following is noted: selectivity factor.

Consider `O=C(O)CN1CCNCCN(CC(=O)O)CCN(CC(=O)O)CC1` [DO3A], for which the “Log KGdL” value in data set [1] was 21.0. Moreover, in the data set with mice, the LD50 was 7 to 9 mmol/kg. Besides, the “Log KCuL” value in data set [2] was 22.87. Further, the “Log KCal” value in data set [3] is given as 11.74. In data set [4], the “Log KZnL” value is given as 19.26. Besides, the “Log Ksel” value in data set [5] was 4.13.
For `O=C(O)CN1CCN(CC(=O)O)CCN(CC(=O)O)CCN(CC(=O)O)CC1` [DOTA, 1,4,7,10-tetraazacyclododecane-1,4,7,10-tetraacetic acid], the “Log KGdL” value in data set [1] is given as 24.6. For the same molecule, in the data set on mice, the LD50 was 11 mmol/kg. Also, the “Log KCuL” value in data set [2] is reported as 22.63. The “Log KCal” value in data set [3] was 17.23. The “Log KZnL” value in data set [4] was 21.05. Further, in data set [5], the “Log Ksel” value is listed as 8.3.
With `O=C(O)CN(CCN(CC(=O)O)CC(=O)O)CCN(CC(=O)O)CC(=O)O` [DTPA], the “Log KGdL” value in data set [1] was 22.46. For the same molecule, the LD50 in the data set with mice is 5.6 mmol/kg. The “Log KCuL” value in data set [2] was 21.38. Further, the “Log KCal” value in data set [3] is given as 10.75. Also, the “Log KZnL” value in data set [4] is 18.29. Besides, the “Log Ksel” value in data set [5] is recorded as 7.04.
As to `O=C(O)CN(CCN(CC(=O)O)CC(=O)O)CC(=O)O` [EDTA], in data set [1], the “Log KGdL” value is listed as 17.7. For the same molecule, the “Log KCuL” value in data set [2] is listed as 18.78. Besides, in data set [3], the “Log KCal” value is 10.61. Further, in data set [4], the “Log KZnL” value is given as 16.5. In addition, in data set [5], the “Log Ksel” value is reported as 4.23.
`CC(O)CN1CCN(CC(=O)O)CCN(CC(=O)O)CCN(CC(=O)O)CC1` (centres unmarked) [HP-DO3A]: in data set [1], the “Log KGdL” value is reported as 23.8. The LD50 in the data set with mice was 12 mmol/kg. For the same molecule, in data set [2], the “Log KCuL” value was 22.84. Further, the “Log KCal” value in data set [3] was 14.83. Also, in data set [4], the “Log KZnL” value is 19.37. Moreover, the “Log Ksel” value in data set [5] was 6.95.

For orientation: LD50 means the dose expected to kill half of the subjects tested.
